# Columns and labels:
# Type in all cases: in vivo
# [1] = tested on: field corn (Zea mays L., var. Dekalb 535, CORN); test: Post-emerge test, crop safety; conditions: post-emerge, crop damage rating 0-100 at 14 days after application
# Outline: (§1)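 Herbicidal damage is scored 0 (none) to 100 (complete plant death) two weeks after a simulated field spray. Rates span 15–1000 g ai/ha, delivered in acetone at 187 l/ha. For post-emergence treatments, plants have 2–3 leaves and the spray carries 0.25% v/v non-ionic surfactant.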
# [2] = tested on: upland rice (Oryza sp., var. Tebonnet, RICE); test: Post-emerge test, crop safety; conditions: post-emerge, crop damage rating 0-100 at 14 days after application
# Outline: as §1
# [3] = tested on: sicklepod (Cassia obtusifolia, CASOB); test: Post-emerge test, greenhouse herbicide activity screening; conditions: post-emerge, phytotoxicity rating 0-100 at 14 days after application
# Outline: (§2)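 Compounds in acetone were track-sprayed at 187 l/ha, 15–1000 g ai/ha, onto sandy loam pots. Pre-emerge seeds were sown one day before spraying, with surface watering afterwards. Post-emerge plants were at the 2–3 leaf stage and sprayed with 0.25% v/v non-ionic surfactant. Injury was rated 0–100 at 14 days.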
# [4] = tested on: green foxtail (Setaria viridis, SETVI); test: as above; conditions: post-emerge, phytotoxicity rating 0-100 at 14 days after application
# Outline: as §2
# [5] = tested on: lambsquarters (Chenopodium album, CHEAL); test: as above; conditions: post-emerge, phytotoxicity rating 0-100 at 14 days after application
# Outline: as §2
# [6] = tested on: large crabgrass (Digitaria sanguinalis, DIGSA); test: as above; conditions: post-emerge, phytotoxicity rating 0-100 at 14 days after application
# Outline: as §2
# [7] = tested on: redroot pigweed (Amaranthus retroflexus, AMARE); test: as above; conditions: post-emerge, phytotoxicity rating 0-100 at 14 days after application
# Outline: as §2
# [8] = tested on: velvetleaf (Abutilon theophrasti, ABUTH); test: as above; conditions: post-emerge, phytotoxicity rating 0-100 at 14 days after application
# Outline: as §2
# [9] = tested on: johnsongrass (Sorghum halepense, SORHA); test: as above; conditions: post-emerge, phytotoxicity rating 0-100 at 14 days after application
# Outline: as §2
# [10] = tested on: barnyardgrass (Echinochloa crus-galli, ECHCG); test: as above; conditions: post-emerge, phytotoxicity rating 0-100 at 14 days after application
# Outline: as §2
# [11] = tested on: ivyleaf morningglory (Ipomoea hederacea, IPOHE); test: as above; conditions: post-emerge, phytotoxicity rating 0-100 at 14 days after application
# Outline: as §2
# [12] = tested on: sicklepod (Cassia obtusifolia, CASOB); test: Pre-emerge test, greenhouse herbicide activity screening; conditions: pre-emerge, phytotoxicity rating 0-100 at 14 days after application
# Outline: as §1
# [13] = tested on: green foxtail (Setaria viridis, SETVI); test: as above; conditions: pre-emerge, phytotoxicity rating 0-100 at 14 days after application
# Outline: as §1
# [14] = tested on: lambsquarters (Chenopodium album, CHEAL); test: as above; conditions: pre-emerge, phytotoxicity rating 0-100 at 14 days after application
# Outline: as §1
# [15] = tested on: large crabgrass (Digitaria sanguinalis, DIGSA); test: as above; conditions: pre-emerge, phytotoxicity rating 0-100 at 14 days after application
# Outline: as §1
# [16] = tested on: velvetleaf (Abutilon theophrasti, ABUTH); test: as above; conditions: pre-emerge, phytotoxicity rating 0-100 at 14 days after application
# Outline: as §1
# [17] = tested on: barnyardgrass (Echinochloa crus-galli, ECHCG); test: as above; conditions: pre-emerge, phytotoxicity rating 0-100 at 14 days after application
# Outline: as §1
# [18] = tested on: ivyleaf morningglory (Ipomoea hederacea, IPOHE); test: as above; conditions: pre-emerge, phytotoxicity rating 0-100 at 14 days after application
# Outline: as §1
# [19] = tested on: redroot pigweed (Amaranthus retroflexus, AMARE); test: as above; conditions: pre-emerge, phytotoxicity rating 0-100 at 14 days after application
# Outline: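 Plants grown in 10 cm pots of sandy loam mix received acetone-dissolved compounds through a moving flat-fan nozzle. Doses ranged from 15 to 1000 g ai/ha. Pre-emerge pots were seeded one day earlier, post-emerge pots 8–21 days earlier. Fourteen days on, each pot was graded 0–100 for damage.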
# [20] = tested on: field corn (Zea mays L., var. Dekalb 535, CORN); test: Pre-emerge test, crop safety; conditions: crop damage, pre-emerge, phytotoxicity rating 0-100 at 14 days after application
# Outline: (§3)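 Applied at 15–1000 g ai/ha from acetone in 187 l/ha spray volume. Post-emergence applications included 0.25% v/v non-ionic surfactant and reached plants sown 8–21 days before. Pre-emergence applications were incorporated by surface watering. Efficacy or crop damage was rated on a 0–100 scale after 14 days.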
# [21] = tested on: upland rice (Oryza sp., var. Tebonnet, RICE); test: Pre-emerge test, crop safety; conditions: crop damage, pre-emerge, phytotoxicity rating 0-100 at 14 days after application
# Outline: as §3
smiles,measurement,setting,value
COc1c(Cl)cc(F)c(-n2nc(C)n(C(F)F)c2=O)c1NC(=O)c1ccc(F)cc1F [Compound 6-14],Post-emerge Herbicidal Activity CORN,[1]; 63 g ai/ha,60
same,Post-emerge Herbicidal Activity CORN,[1]; 250 g ai/ha,100
same,Post-emerge Herbicidal Activity RICE,[2]; 63 g ai/ha,60
same,Post-emerge Herbicidal Activity RICE,[2]; 250 g ai/ha,90
same,Post-emerge Herbicidal Activity CASOB,[3]; 63 g ai/ha,60
same,Post-emerge Herbicidal Activity CASOB,[3]; 250 g ai/ha,90
same,Post-emerge Herbicidal Activity SETVI,[4]; 63 g ai/ha,90
same,Post-emerge Herbicidal Activity SETVI,[4]; 250 g ai/ha,100
same,Post-emerge Herbicidal Activity CHEAL,[5]; 63 g ai/ha,100
same,Post-emerge Herbicidal Activity CHEAL,[5]; 250 g ai/ha,100
same,Post-emerge Herbicidal Activity DIGSA,[6]; 63 g ai/ha,60
same,Post-emerge Herbicidal Activity DIGSA,[6]; 250 g ai/ha,90
same,Post-emerge Herbicidal Activity AMARE,[7]; 63 g ai/ha,80
same,Post-emerge Herbicidal Activity AMARE,[7]; 250 g ai/ha,100
same,Post-emerge Herbicidal Activity ABUTH,[8]; 63 g ai/ha,100
same,Post-emerge Herbicidal Activity ABUTH,[8]; 250 g ai/ha,100
same,Post-emerge Herbicidal Activity SORHA,[9]; 63 g ai/ha,30
same,Post-emerge Herbicidal Activity SORHA,[9]; 250 g ai/ha,90
same,Post-emerge Herbicidal Activity ECHCG,[10]; 63 g ai/ha,20
same,Post-emerge Herbicidal Activity ECHCG,[10]; 250 g ai/ha,90
same,Post-emerge Herbicidal Activity IPOHE,[11]; 63 g ai/ha,100
same,Post-emerge Herbicidal Activity IPOHE,[11]; 250 g ai/ha,100
same,Pre-emerge Herbicidal Activity CASOB,[12]; rate 63 g ai/ha,40
same,Pre-emerge Herbicidal Activity CASOB,[12]; rate 250 g ai/ha,60
same,Pre-emerge Herbicidal Activity SETVI,[13]; rate 63 g ai/ha,100
same,Pre-emerge Herbicidal Activity SETVI,[13]; rate 250 g ai/ha,100
same,Pre-emerge Herbicidal Activity CHEAL,[14]; rate 63 g ai/ha,100
same,Pre-emerge Herbicidal Activity CHEAL,[14]; rate 250 g ai/ha,100
same,Pre-emerge Herbicidal Activity DIGSA,[15]; rate 63 g ai/ha,100
same,Pre-emerge Herbicidal Activity DIGSA,[15]; rate 250 g ai/ha,100
same,Pre-emerge Herbicidal Activity ABUTH,[16]; rate 63 g ai/ha,100
same,Pre-emerge Herbicidal Activity ABUTH,[16]; rate 250 g ai/ha,100
same,Pre-emerge Herbicidal Activity ECHCG,[17]; rate 63 g ai/ha,100
same,Pre-emerge Herbicidal Activity ECHCG,[17]; rate 250 g ai/ha,100
same,Pre-emerge Herbicidal Activity IPOHE,[18]; rate 63 g ai/ha,60
same,Pre-emerge Herbicidal Activity IPOHE,[18]; rate 250 g ai/ha,100
same,Pre-emerge Herbicidal Activity AMARE,[19]; rate 63 g ai/ha,90
same,Pre-emerge Herbicidal Activity AMARE,[19]; rate 250 g ai/ha,100
same,Pre-emerge Herbicidal Activity CORN,[20]; rate 63 g ai/ha,90
same,Pre-emerge Herbicidal Activity CORN,[20]; rate 250 g ai/ha,100
same,Pre-emerge Herbicidal Activity RICE,[21]; rate 63 g ai/ha,90
same,Pre-emerge Herbicidal Activity RICE,[21]; rate 250 g ai/ha,100
Cc1nn(-c2c(F)cc(Cl)cc2NC(=O)c2ccc(F)cc2F)c(=O)n1C(F)F [Compound 6-23],Post-emerge Herbicidal Activity CORN,[1]; 63 g ai/ha,0
same,Post-emerge Herbicidal Activity CORN,[1]; 250 g ai/ha,15
same,Post-emerge Herbicidal Activity RICE,[2]; 63 g ai/ha,0
same,Post-emerge Herbicidal Activity RICE,[2]; 250 g ai/ha,15
same,Post-emerge Herbicidal Activity CASOB,[3]; 63 g ai/ha,0
same,Post-emerge Herbicidal Activity CASOB,[3]; 250 g ai/ha,10
same,Post-emerge Herbicidal Activity SETVI,[4]; 63 g ai/ha,0
same,Post-emerge Herbicidal Activity SETVI,[4]; 250 g ai/ha,30
same,Post-emerge Herbicidal Activity CHEAL,[5]; 63 g ai/ha,20
same,Post-emerge Herbicidal Activity CHEAL,[5]; 250 g ai/ha,70
same,Post-emerge Herbicidal Activity DIGSA,[6]; 63 g ai/ha,0
same,Post-emerge Herbicidal Activity DIGSA,[6]; 250 g ai/ha,10
same,Post-emerge Herbicidal Activity AMARE,[7]; 63 g ai/ha,20
same,Post-emerge Herbicidal Activity AMARE,[7]; 250 g ai/ha,85
same,Post-emerge Herbicidal Activity ABUTH,[8]; 63 g ai/ha,40
same,Post-emerge Herbicidal Activity ABUTH,[8]; 250 g ai/ha,55
same,Post-emerge Herbicidal Activity SORHA,[9]; 63 g ai/ha,0
same,Post-emerge Herbicidal Activity SORHA,[9]; 250 g ai/ha,0
same,Post-emerge Herbicidal Activity ECHCG,[10]; 63 g ai/ha,0
same,Post-emerge Herbicidal Activity ECHCG,[10]; 250 g ai/ha,0
same,Post-emerge Herbicidal Activity IPOHE,[11]; 63 g ai/ha,10
same,Post-emerge Herbicidal Activity IPOHE,[11]; 250 g ai/ha,30
same,Pre-emerge Herbicidal Activity CASOB,[12]; rate 63 g ai/ha,0
same,Pre-emerge Herbicidal Activity CASOB,[12]; rate 250 g ai/ha,10
same,Pre-emerge Herbicidal Activity SETVI,[13]; rate 63 g ai/ha,0
same,Pre-emerge Herbicidal Activity SETVI,[13]; rate 250 g ai/ha,60
same,Pre-emerge Herbicidal Activity CHEAL,[14]; rate 63 g ai/ha,30
same,Pre-emerge Herbicidal Activity CHEAL,[14]; rate 250 g ai/ha,100
same,Pre-emerge Herbicidal Activity DIGSA,[15]; rate 63 g ai/ha,0
same,Pre-emerge Herbicidal Activity DIGSA,[15]; rate 250 g ai/ha,10
same,Pre-emerge Herbicidal Activity ABUTH,[16]; rate 63 g ai/ha,0
same,Pre-emerge Herbicidal Activity ABUTH,[16]; rate 250 g ai/ha,50
same,Pre-emerge Herbicidal Activity ECHCG,[17]; rate 63 g ai/ha,0
same,Pre-emerge Herbicidal Activity ECHCG,[17]; rate 250 g ai/ha,0
same,Pre-emerge Herbicidal Activity IPOHE,[18]; rate 63 g ai/ha,0
same,Pre-emerge Herbicidal Activity IPOHE,[18]; rate 250 g ai/ha,20
same,Pre-emerge Herbicidal Activity AMARE,[19]; rate 63 g ai/ha,50
same,Pre-emerge Herbicidal Activity AMARE,[19]; rate 250 g ai/ha,100
same,Pre-emerge Herbicidal Activity CORN,[20]; rate 63 g ai/ha,0
same,Pre-emerge Herbicidal Activity CORN,[20]; rate 250 g ai/ha,0
same,Pre-emerge Herbicidal Activity RICE,[21]; rate 63 g ai/ha,0
same,Pre-emerge Herbicidal Activity RICE,[21]; rate 250 g ai/ha,0

# From patent US6355799B1, “Substituted benzene compounds, process for their preparation, and herbicidal and defoliant compositions containing them” (ISK Americas Incorporated, priority 1997, dated 2002)
